{"source": "ChEMBL document CHEMBL5120867", "about": "“Hernandezine Regulates Proliferation and Autophagy-Induced Apoptosis in Melanoma Cells” (J Nat Prod, 2022)", "key": {"[1]": {"test_system": "A-375", "experiment": "Induction of autophagy in human A-375 cells assessed as increase in LC3-II expression at 7 uM incubated for 6 to 24 hrs by […]", "format": "functional, cell-based", "details": "time 6-24 hrs"}, "[2]": {"test_system": "A-375", "experiment": "Induction of cell cycle arrest in human A-375 cells assessed as accumulation at G2/M phase incubated for 24 hrs in presence of AG490 inhibitor by PI staining based flow cytometry analysis (reference value: 8.87 %)", "format": "functional"}, "[3]": {"test_system": "B16", "experiment": "Induction of cell cycle arrest in mouse B16 cells assessed as accumulation at S phase incubated for 24 hrs by PI staining based flow cytometry analysis (reference value: 42.53 %)", "format": "functional"}, "[4]": {"test_system": "B16", "experiment": "Inhibition of colony formation in mouse B16 cells assessed as reduction in volume of colonies at 5 to 7 uM incubated for 24 hrs followed by replacement with fresh medium and measured after 14 days by crystal violet staining based analysis", "format": "functional, cell-based", "details": "dose 5-7 µM"}, "[5]": {"test_system": "A-375", "experiment": "Induction of apoptosis in human A-375 cells assessed as cytoplasmic shrinkage at 6 to 8 uM incubated for 24 hrs by Hoechst 33258 staining based fluorescence microscopy", "format": "functional, cell-based", "details": "dose 6-8 µM"}, "[6]": {"test_system": "A-375", "experiment": "Induction of apoptosis in human A-375 cells assessed as late apoptotic cells after 24 hrs by Annexin-V-FITC/PI-staining based flow cytometry (reference value: 5.7 %)", "format": "functional"}, "[7]": {"test_system": "B16", "experiment": "Induction of apoptosis in mouse B16 cells assessed as late apoptotic cells at 7 uM measured after 24 hrs by Annexin-V-FITC/PI-staining based flow cytometry (reference value: 4.4 %)", "format": "functional"}, "[8]": {"test_system": "A-375", "experiment": "Induction of cell cycle arrest in human A-375 cells assessed as accumulation at S phase at 7 uM incubated for 24 hrs by PI staining based flow cytometry analysis (reference value: 28.83 %)", "format": "functional"}, "[9]": {"test_system": "A-375", "experiment": "Downregulation of CDK4 protein expression in human A-375 cells at 6 to 8 uM measured after 12 to 24 hrs by western blot assay", "format": "functional, cell-based", "details": "dose 6-8 µM, time 12-24 hrs"}, "[10]": {"test_system": "B16", "experiment": "Induction of apoptosis in mouse B16 cells assessed as early apoptotic cells at 5 uM measured after 24 hrs by Annexin-V-FITC/PI-staining based flow cytometry (reference value: 0.5 %)", "format": "functional"}, "[11]": {"test_system": "A-375", "experiment": "Upregulation of p21 accumulation in human A-375 cells at 6 to 8 uM measured after 12 to 24 hrs by western blot assay", "format": "functional, cell-based", "details": "dose 6-8 µM, time 12-24 hrs"}, "[12]": {"test_system": "A-375", "experiment": "Induction of apoptosis in human A-375 cells assessed as early apoptotic cells at 8 uM after 24 hrs by Annexin-V-FITC/PI-staining based flow cytometry (reference value: 1.4 %)", "format": "functional"}, "[13]": {"test_system": "A-375", "experiment": "Induction of apoptosis in human A-375 cells assessed as late apoptotic cells at 6 uM after 24 hrs by Annexin-V-FITC/PI-staining based flow cytometry (reference value: 5.7 %)", "format": "functional"}, "[14]": {"test_system": "A-375", "experiment": "Induction of apoptosis in human A-375 cells assessed as early apoptotic cells after 24 hrs by Annexin-V-FITC/PI-staining based flow cytometry (reference value: 3.1 %)", "format": "functional"}, "[15]": {"test_system": "B16", "experiment": "Induction of apoptosis in mouse B16 cells assessed as late apoptotic cells preincubated for 2 hrs with […] followed by compound addition and measured after 24 hrs by Annexin-V-FITC/PI-staining based flow cytometry (reference value: 5.7 %)", "format": "functional"}, "[16]": {"test_system": "B16", "experiment": "Induction of cell cycle arrest in mouse B16 cells assessed as accumulation at S phase incubated for 24 hrs in presence of AG490 by PI staining based flow cytometry analysis (reference value: 42.53 %)", "format": "functional"}, "[17]": {"test_system": "A-375", "experiment": "Induction of cell cycle arrest in human A-375 cells assessed as accumulation at G2/M phase incubated for 24 hrs by PI staining based flow cytometry analysis (reference value: 8.87 %)", "format": "functional"}, "[18]": {"test_system": "A-375", "experiment": "Induction of cell cycle arrest in human A-375 cells assessed as accumulation at G0/G1 phase incubated for 24 hrs by PI staining based flow cytometry analysis (reference value: 56.69 %)", "format": "functional"}, "[19]": {"test_system": "B16", "experiment": "Induction of apoptosis in mouse B16 cells assessed as early apoptotic cells at 6 uM measured after 24 hrs by Annexin-V-FITC/PI-staining based flow cytometry (reference value: 0.5 %)", "format": "functional"}, "[20]": {"test_system": "B16", "experiment": "Induction of cell cycle arrest in mouse B16 cells assessed as accumulation at G2/M phase at 7 uM incubated for 24 hrs by PI staining based flow cytometry analysis (reference value: 4.70 %)", "format": "functional"}, "[21]": {"test_system": "B16", "experiment": "Induction of apoptosis in mouse B16 cells assessed as nuclear membrane lysis at 5 to 7 uM incubated for 24 hrs by Hoechst 33258 staining based fluorescence microscopy", "format": "functional, cell-based", "details": "dose 5-7 µM"}, "[22]": {"test_system": "A-375", "experiment": "Induction of apoptosis in human A-375 cells assessed as increase in cleaved caspase 9 expression at 6 to 8 uM incubated for 24 hrs by Western blot analysis", "format": "functional, cell-based", "details": "dose 6-8 µM"}, "[23]": {"test_system": "A-375", "experiment": "Inhibition of colony formation in human A-375 cells assessed as reduction in volume of colonies at 6 to 8 uM incubated for 24 hrs followed by replacement with fresh medium and measured after 14 days by crystal violet staining based analysis", "format": "functional, cell-based", "details": "dose 6-8 µM"}, "[24]": {"test_system": "A-375", "experiment": "Inhibition of colony formation in human A-375 cells assessed as reduction in number of colonies at 6 to 8 uM incubated for 24 hrs followed by replacement with fresh medium and measured after 14 days by crystal violet staining based analysis", "format": "functional, cell-based", "details": "dose 6-8 µM"}, "[25]": {"test_system": "A-375", "experiment": "Upregulation of p27 accumulation in human A-375 cells at 6 to 8 uM measured after 12 to 24 hrs by western blot assay", "format": "functional, cell-based", "details": "dose 6-8 µM, time 12-24 hrs"}, "[26]": {"test_system": "B16", "experiment": "Induction of apoptosis in mouse B16 cells assessed as early apoptotic cells at 7 uM measured after 24 hrs by Annexin-V-FITC/PI-staining based flow cytometry (reference value: 0.5 %)", "format": "functional"}, "[27]": {"test_system": "A-375", "experiment": "Downregulation of Cyclin D1 protein expression in human A-375 cells at 6 to 8 uM measured after 12 to 24 hrs by western blot assay", "format": "functional, cell-based", "details": "dose 6-8 µM, time 12-24 hrs"}, "[28]": {"test_system": "B16", "experiment": "Induction of cell cycle arrest in mouse B16 cells assessed as accumulation at S phase at 5 uM incubated for 24 hrs by PI staining based flow cytometry analysis (reference value: 33.46 %)", "format": "functional"}, "[29]": {"test_system": "A-375", "experiment": "Cytotoxicity against human A-375 cells assessed as change in cell morphology with loss of […] contacts at 6 to 8 uM incubated for 24 hrs by […] phase contrast microscope analysis", "format": "functional", "details": "dose 6-8 µM"}, "[30]": {"test_system": "B16", "experiment": "Induction of cell cycle arrest in mouse B16 cells assessed as accumulation at G2/M phase at 5 uM incubated for 24 hrs by PI staining based flow cytometry analysis (reference value: 4.70 %)", "format": "functional"}, "[31]": {"test_system": "B16", "experiment": "Induction of apoptosis in mouse B16 cells assessed as cytoplasmic shrinkage at 5 to 7 uM incubated for 24 hrs by Hoechst 33258 staining based fluorescence microscopy", "format": "functional, cell-based", "details": "dose 5-7 µM"}, "[32]": {"test_system": "B16", "experiment": "Inhibition of autophagy in mouse B16 cells harbouring mCherry-EGFP-LC3 assessed as increase in proportion of autolysosomes at 6 uM for 8 to 24 hrs by laser scanning confocal microscopic analysis", "format": "functional, cell-based", "details": "time 8-24 hrs"}, "[33]": {"test_system": "B16", "experiment": "Inhibition of autophagy in mouse B16 cells harbouring mCherry-EGFP-LC3 assessed as increase in number of autophagosomes at 6 uM for 8 to 24 hrs by laser scanning confocal microscopic analysis", "format": "functional, cell-based", "details": "time 8-24 hrs"}, "[34]": {"test_system": "A-375", "experiment": "Induction of apoptosis in human A-375 cells assessed as nuclear membrane lysis at 6 to 8 uM incubated for 24 hrs by Hoechst 33258 staining based fluorescence microscopy", "format": "functional, cell-based", "details": "dose 6-8 µM"}}, "note": "Active and inactive are the calls of the source. The rule behind the calls is not given here."}
{"smiles": "COc1ccc2cc1Oc1ccc(cc1)C[C@H]1c3cc(c(OC)cc3CCN1C)Oc1c(OC)c(OC)c(OC)c3c1[C@H](C2)N(C)CC3", "note": "[HERNANDEZINE]", "values": [{"measurement": "Activity", "setting": "[1]", "result": "Active"}, {"measurement": "Activity", "setting": "[2]", "result": 4.78, "unit": "%"}, {"measurement": "Activity", "setting": "[3]", "result": 12.63, "unit": "%"}, {"measurement": "inhibition", "setting": "[4]", "result": "Active"}, {"measurement": "Activity", "setting": "[5]", "result": "Active"}, {"measurement": "Activity", "setting": "[6]", "result": 48.1, "unit": "%"}, {"measurement": "Activity", "setting": "[7]", "result": 25.8, "unit": "%"}, {"measurement": "Activity", "setting": "[8]", "result": 22.36, "unit": "%"}, {"measurement": "Activity", "setting": "[9]", "result": "Active"}, {"measurement": "Activity", "setting": "[10]", "result": 4.6, "unit": "%"}, {"measurement": "Activity", "setting": "[11]", "result": "Active"}, {"measurement": "Activity", "setting": "[12]", "result": 18.2, "unit": "%"}, {"measurement": "Activity", "setting": "[13]", "result": 18.9, "unit": "%"}, {"measurement": "Activity", "setting": "[14]", "result": 19.6, "unit": "%"}, {"measurement": "Activity", "setting": "[15]", "result": 16, "unit": "%"}, {"measurement": "Activity", "setting": "[16]", "result": 6.92, "unit": "%"}, {"measurement": "Activity", "setting": "[17]", "result": 9.5, "unit": "%"}, {"measurement": "Activity", "setting": "[18]", "result": 63.87, "unit": "%"}, {"measurement": "Activity", "setting": "[19]", "result": 12.9, "unit": "%"}, {"measurement": "Activity", "setting": "[20]", "result": 2.98, "unit": "%"}, {"measurement": "Activity", "setting": "[21]", "result": "Active"}, {"measurement": "Activity", "setting": "[22]", "result": "Active"}, {"measurement": "inhibition", "setting": "[23]", "result": "Active"}, {"measurement": "inhibition", "setting": "[24]", "result": "Active"}, {"measurement": "Activity", "setting": "[25]", "result": "Active"}, {"measurement": "Activity", "setting": "[26]", "result": 16.4, "unit": "%"}, {"measurement": "Activity", "setting": "[27]", "result": "Active"}, {"measurement": "Activity", "setting": "[28]", "result": 23.42, "unit": "%"}, {"measurement": "Activity", "setting": "[29]", "result": "Active"}, {"measurement": "Activity", "setting": "[30]", "result": 4.58, "unit": "%"}, {"measurement": "Activity", "setting": "[31]", "result": "Active"}, {"measurement": "inhibition", "setting": "[32]", "result": "Active"}, {"measurement": "inhibition", "setting": "[33]", "result": "Active"}, {"measurement": "Activity", "setting": "[34]", "result": "Active"}]}
